{"source": "patent US12298308B2", "about": "“Neoadjuvant chemotherapy induces breast cancer metastasis through a TMEM-mediated mechanism” (Albert Einstein College of Medicine, priority 2017, dated 2025)", "assay_type_in_all_cases": "in vivo, mouse", "key": {"TMEM": {"system": "TMEM", "experiment": "Intravital imaging of TMEM-dependent vascular permeability (bursting)", "from_the_text": "Paclitaxel Induces TMEM-Dependent Vascular Permeability in Breast Tumors—Given that chemotherapy treatment may affect blood vessel dynamics by inducing angiogenesis (9, 11-13, 35-37), intravital imaging (IVI) (FIG. 2A) was used to investigate whether neoadjuvant paclitaxel induces TMEM-dependent (localized) or TMEM-independent (more universal) blood vessel leakage. […] As also reported previously (1), we never observed any bursting incidents without juxtaposition to a clearly defined TMEM site. Bursting was documented by the accumulation of Dextran-TMR signal over time around an active TMEM site, and no such accumulation was observed away from TMEM (FIGS. 2B-C). The entire time-lapse of these was recorded in videos, respectively. The intensity values from all TMEM-mediated bursting incidents observed in paclitaxel-treated mice were averaged and plotted over the entire time of bursting activity (FIG. 2D), which confirmed the transient nature of paclitaxel-induced TMEM-dependent vascular permeability.\nDrug Administration. The following drugs were administered in mice: Paclitaxel was given at 10 mg/Kg i.v every 5 days for 2 weeks; Doxorubicin was given at 5 mg/Kg i.v. every 5 days for 2 weeks; Cyclophosphamide was given at 120 mg/Kg i.p. only once; Rebastinib was given at 10 mg/Kg per os, every 3-4 days for 4 weeks.\nIntravital Imaging. Intravital imaging was performed using a custom-built two-laser multiphoton microscope, as previously described (57). Mice were anesthetized using 0.75-2.5% isofluorane, depilated. A skin flap procedure, previously developed (58), was performed by exposing the 4th or 5th mammary fat pad. Given the early stage of carcinoma and small tumor size, this necessitated the development of a custom fixturing technique where the exposed tissue was stabilized by affixing the edge of a 10-mm window fitted with an 8-mm clear aperture respectively with cyanoacrylate. The mouse was then placed on a fixturing plate, fitted to the respective window, on the microscope xy stage and imaging was performed in the center of the window away from the glue. The animal was placed in a heated chamber, AirTherm ATX forced air heater (WPI Inc.), maintained at physiologic temperature during the course of imaging, and supplemented with 50-100 uL of PBS per hour via the tail vein catheter. As previously described (1), three milligrams of 155-kDa TMR-dextran (Sigma) were administered via the catheter to visualize the vasculature. All images were reconstructed and analyzed in ImageJ (59), as described in Supplementary Methods."}, "lung metastases": {"system": "lung metastases", "experiment": "Lung metastasis and single cancer cell dissemination in lungs", "from_the_text": "To further determine the effect of paclitaxel on cancer cell dissemination to distant sites, we harvested lungs and evaluated metastatic foci histologically. An increase was found in both the metastatic incidence (>1 micrometastatic focus of >5 tumor cells) (FIG. 3H) and the number of cancer cell micrometastases in the lungs of paclitaxel-treated mice (FIG. 3I). In addition, we quantified single cell dissemination of breast cancer cells in the lungs of FVB-recipient mice after syngeneic transplantation of MMTV-PyMT/Dendra2^+ tumors using ex vivo microscopy, and found an approximately 2-fold increase (p<0.01) of single Dendra2^+ breast cancer cells in the lungs of paclitaxel-treated mice (FIG. 3J). Overall, data presented in this section indicate that in early-stage breast cancers chemotherapy increases vascular permeability at TMEM sites which is accompanied by increased cancer cell dissemination.\nHistology and TMEM Immunohistochemistry."}, "Mena": {"system": "Mena", "experiment": "Mena isoform gene expression by qRT-PCR on FFPE tumors", "from_the_text": "To test this hypothesis, qRT-PCR analysis was first performed for total Mena (panMena), Mena11a and Mena^INV on formalin-fixed paraffin-embedded (FFPE) tumors from all mouse models. […] As shown in the specific Mena^INV IF, the pattern of Mena^INV expression in PyMT mice was heterogeneous (FIG. 4F), consistent with previous observations (40). […] In addition, there was an inverse correlation for the anti-metastatic Mena11a (p<0.01, […]).\nGene Expression Analysis. Total RNA was extracted from formalin-fixed paraffin-embedded (FFPE) tissues using deparaffinization solution (Qiagen) and RNeasy FFPE Kit (Qiagen), followed by DNase treatment. An RT-PCR method SYBR Green (Qiagen) was used to measure expression levels of total Mena (PanMena), as well as of the specific Mena isoforms, Mena11a and Mena^INV, as described (29), with slight modifications, as detailed in Supplementary Methods. Mena^Calc expression has been previously defined as the expression level of all Mena isoforms combined after subtraction of Mena 11a from PanMena (2)."}}}
{"smiles": "CC(=O)O[C@H]1C(=O)[C@@]2(C)[C@H]([C@H](OC(=O)c3ccccc3)[C@]3(O)C[C@H](OC(=O)[C@H](O)[C@@H](NC(=O)c4ccccc4)c4ccccc4)C(C)=C1C3(C)C)[C@]1(OC(C)=O)CO[C@@H]1C[C@@H]2O", "note": "[paclitaxel]", "values": [{"measurement": "generalized blood vessel leakage of 155-KDa dextran into the extravascular space", "setting": "TMEM; intravital imaging, paclitaxel-treated mice", "value": "did not demonstrate generalized blood vessel leakage"}, {"measurement": "frequency of bursting", "setting": "TMEM; vs vehicle control", "value": "increased"}, {"measurement": "incidence of bursting (at least 1 bursting event in a ~4.5-hour imaging session)", "setting": "TMEM; vs vehicle control", "value": "increased"}, {"measurement": "increase of single Dendra2^+ breast cancer cells in the lungs", "setting": "lung metastases; FVB recipients of MMTV-PyMT/Dendra2^+ tumors, ex vivo microscopy, p<0.01", "value": "approximately 2 fold"}, {"measurement": "disseminated cells in the lungs", "setting": "lung metastases; Mena^-/- PyMT-CFP transplants", "value": "failed to boost"}, {"measurement": "metastatic incidence (>1 micrometastatic focus of >5 tumor cells) in lungs", "setting": "lung metastases; histological evaluation", "value": "increase"}, {"measurement": "number of cancer cell micrometastases in the lungs", "setting": "lung metastases; histological evaluation", "value": "increase"}, {"measurement": "expression of Mena11a", "setting": "Mena", "value": "not that of the anti-metastatic Mena11a"}, {"measurement": "expression of Mena^Calc", "setting": "Mena; p<0.01", "value": "significantly increased"}, {"measurement": "expression of Mena^INV", "setting": "Mena; p<0.01", "value": "significantly increased"}, {"measurement": "expression of PanMena", "setting": "Mena; p<0.01", "value": "significantly increased"}]}
